Test results published in patent US20090281142A1, “THIAZOLE DERIVATIVE” (ASTELLAS PHARMA INC., priority 2005, published 2009).

Tests used:
[1] = target: T1, recombinant human liver GK (GST-hGK2) (Homo sapiens, UniProt P35557); assay: Measurement of GK activation; assay type: biochemical; conditions: 10 min; 10 μM test agent, 5 mM glucose, increase of absorbance (340 nm) in first 10 minutes relative to DMSO control
T1 construct: cloning of ORF (open reading frame) was carried out by the following procedure based on AK122876.1; made in house; host or cells: E. coli
T1 sequence (P35557 1-466 isoform P35557-2): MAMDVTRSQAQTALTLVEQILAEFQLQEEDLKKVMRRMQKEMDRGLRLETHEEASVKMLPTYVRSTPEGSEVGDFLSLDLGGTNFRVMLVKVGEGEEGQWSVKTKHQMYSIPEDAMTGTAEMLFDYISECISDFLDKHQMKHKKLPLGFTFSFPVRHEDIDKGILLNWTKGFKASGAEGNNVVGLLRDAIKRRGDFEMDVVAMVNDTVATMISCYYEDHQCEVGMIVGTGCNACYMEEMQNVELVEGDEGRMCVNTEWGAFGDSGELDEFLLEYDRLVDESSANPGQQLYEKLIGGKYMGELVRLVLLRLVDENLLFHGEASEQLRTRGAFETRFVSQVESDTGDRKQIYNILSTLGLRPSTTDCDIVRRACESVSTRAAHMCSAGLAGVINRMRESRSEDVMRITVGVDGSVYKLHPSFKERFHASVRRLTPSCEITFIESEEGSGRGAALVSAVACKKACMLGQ
Description: Measurement of the GK activation by test agents was carried out in accordance with the method described in Science 301: 370-373, 2003, and by partially modifying this. The GK activity was measured as a change in absorbance based on the amount of NADPH which is converted from NADP (nicotinamide adenine dinucleotide phosphate) when glucose 6-phosphate produced by GK using glucose as the substrate is […] glucose-6-phosphate dehydrogenase.
Regarding the recombinant human liver GK (GST-hGK2) to be used in this assay, it was used by expressing as GST (glutathione S transferase)-fusion protein in E. coli and purifying by a Glutathione Sepharose column.
Regarding the sequence of glucokinase isoform 2, cloning of ORF (open reading frame) was carried out by the following procedure based on AK122876.1 (accession number). Using pME18S-FL3-Glucokinase isoform 2 as the template, PCR (polymerase chain reaction) was carried out using 5′-[…]-3′(SEQ ID NO:1) as the 5′ primer and 5′-[…]-3′ (SEQ ID NO:2) as the 3′ primer, and the PCR product was TA-cloned into pGEM-T easy vector. The sequence of this clone was confirmed by carrying out its sequencing. Thereafter, a fragment digested with EcoRI and XhoI was ligated to a vector pGEX-5X-1 digested in the same manner to prepare pGEX-human Glucokinase 2.
Regarding the enzyme reaction, the measurement was carried out at 27° C. using a 96 well flat bottom plate. As the enzyme mixed liquid, 25 mM HEPES pH 7.4; 25 mM KCl; 2 mM MgCl2; 1 mM ATP; 0.1% BSA; 1 mM DTT; 0.8 mM NADP; 2.5 U/ml glucose-6-phosphate dehydrogenase; GST-hGK2 (all in final concentration, however, the amount of GST-hGK2 was adjusted in such a manner that increase of absorbance of the DMSO control in 10 minutes (ΔOD) becomes about 0.12) was prepared. The enzyme mixed liquid was dispensed in 89 μl portions into the aforementioned plate, and a test agent dissolved in DMSO or the DMSO control was added thereto in 1 μl portions. Subsequently, glucose (5 mM in final concentration) was added as the substrate solution in 10 μl portions and the reaction was started at 27° C.
After commencement of the reaction, the absorbance was measured at a wavelength of 340 nm for 15 minutes at intervals of about 30 seconds, and the GK activation of each compound was calculated from the increase of absorbance during the first 10 minutes (ΔOD). Index of the GK activation of each test agent was calculated from the following formula as the GK activation (%).
GK activation (%)=[(ΔODTest)−(ΔODCont)]/(ΔODCont)×100
ΔODTest: ΔOD at 10 μM test agent
ΔODCont: ΔOD of DMSO control

ICR mice = assay: Action upon high blood glucose level after oral glucose loading in ICR mice; assay type: in vivo; conditions: 3 mg/kg oral, fasted ICR mice, AUC of blood glucose from administration until 2 hours after oral glucose loading (2 g/kg) vs solvent control
Description: After overnight fasting, body weights of ICR mice (N=5) were measured. Each test compound was dissolved in Cremophor solvent (Cremophor:DMSO:Water 5:5:90, v/v/v) to a concentration of 0.3 mg/ml. To each mouse was orally administered 10 ml/kg of the agent liquid (corresponds to the test compound of 3 mg/kg) or 10 ml/kg of the solvent control. Just before the administration of the test compound, about 60 μl of blood was collected from the venous plexus of the fundus of the eye using a capillary. After 30 minutes of the administration of the test compound, 200 mg/ml of glucose aqueous solution was orally administered at a dose of 10 ml/kg (corresponds to 2 g/kg). Just before the administration of glucose, about 60 μl of blood was collected from the venous plexus of the fundus of the eye using a capillary. Blood was collected in the same manner after 0.5, 1 and 2 hours of the glucose administration. Blood plasma was separated from the thus collected blood to measure the blood glucose level. AUC of the blood glucose level after the administration of the test compound until 2 hours after the glucose loading was compared with AUC of the solvent control group within the same period of time.

[2] = tested on: db/db (C57BL/KsJ-db/db) mice; assay: Action upon high blood glucose level after oral glucose loading in db/db mice; assay type: in vivo; conditions: 10 mg/kg oral, fasted db/db mice, from administration until 2 hours after oral glucose loading (2 g/kg)
Description: After overnight fasting, body weights of db/db (C57BL/KsJ-db/db) mice (N=5) were measured. Each test compound was dissolved in Cremophor solvent (Cremophor:DMSO:Water 5:5:90, v/v/v) to a concentration of 1 mg/ml. To each db/db mouse was orally administered 10 ml/kg of the agent liquid (corresponds to the test compound of 10 mg/kg) or 10 ml/kg of the solvent control. Just before the administration of the test compound, about 60 μl of blood was collected from the venous plexus of the fundus of the eye using a capillary. After 30 minutes of the administration of the GK activator, 200 mg/ml of glucose aqueous solution was orally administered at a dose of 10 ml/kg (corresponds to 2 g/kg). Just before the administration of glucose, about 60 μl of blood was collected from the venous plexus of the fundus of the eye using a capillary. Blood was collected in the same manner after 0.5, 1 and 2 hours of the glucose administration. Blood plasma was separated from the thus collected blood to measure the blood glucose level. AUC of the blood glucose level after the administration of the test compound until 2 hours after the glucose loading was compared with AUC of the solvent control group within the same period of time.

C57BL6 mice = assay: Hypoglycemic action in C57BL6 mice; assay type: in vivo; conditions: 10 mg/kg oral, 1 hour after administration, freely ingesting C57BL6 mice
Description: Body weights of freely ingesting C57BL6 mice (N=5) were measured. Each test compound was dissolved in Cremophor (registered trademark) solvent (Cremophor:DMSO:Water 5:5:90, v/v/v) to a concentration of 1 mg/ml. To each mouse was orally administered 10 ml/kg of the agent liquid (corresponds to the test compound of 10 mg/kg) or 10 ml/kg of the solvent control. Just before the administration of the test compound, about 60 μl of blood was collected from the venous plexus of the fundus of the eye using a capillary. Blood was collected in the same manner 1 or 4 hours after the administration of the test compound. Blood plasma was separated from the thus collected blood to measure the blood glucose level. The blood glucose level after 1 or 4 hours of the administration of the test compound was compared with the blood glucose level of the solvent control group at the same period of time.

activation at 10 µM [1] [%] | SMILES | Blood glucose lowering ratio (%) (ICR mice) | AUC of the blood glucose level lowered in comparison with AUC of the solvent control group [2] [%] | blood glucose level lowered in comparison with the solvent control group (C57BL6 mice) [%]
249 | O=C(Nc1nc(C(O)CO)cs1)/C(=C/C1CCCC1)c1ccc(S(=O)(=O)C2CC2)cc1 (stereo not drawn) [Ex 45, (2E)-3-cyclopentyl-2-[4-(cyclopropylsulfonyl)phenyl]-N-[4-(1,2-dihydroxyethyl)-1,3-thiazol-2-yl]acrylamide] | 23 | 39 | –
283 | CC(=O)OCC(O)c1csc(NC(=O)/C(=C/C2CCCC2)c2ccc(S(C)(=O)=O)cc2)n1 (stereo not drawn) [Ex 44] | – | – | –
299 | CS(=O)(=O)c1ccc(/C(=C\C2CCCC2)C(=O)Nc2nc(C(O)CO)cs2)cc1 (stereo not drawn) [Ex 6, (2E)-3-cyclopentyl-N-[4-(1,2-dihydroxyethyl)-1,3-thiazol-2-yl]-2-[4-(methylsulfonyl)phenyl]acrylamide] | – | – | 22
241 | CC(O)(CO)c1csc(NC(=O)/C(=C/C2CCCC2)c2ccc(S(=O)(=O)C3CC3)cc2)n1 (stereo not drawn) [Ex 63, (2E)-3-cyclopentyl-2-[4-(cyclopropylsulfonyl)phenyl]-N-[4-(1,2-dihydroxy-1-methylethyl)-1,3-thiazol-2-yl]acrylamide] | 35 | – | –
273 | CS(=O)(=O)c1ccc([C@@H](CC2CCCC2)C(=O)Nc2nc(C(O)CO)c(Cl)s2)cc1 (stereo partly drawn) [Ex 49] | – | – | –
294 | CC1(C)OCC(c2csc(NC(=O)/C(=C/C3CCCC3)c3ccc(S(C)(=O)=O)c(Cl)c3)n2)O1 (stereo not drawn) [Ex 10, (2E)-2-[3-chloro-4-(methylsulfonyl)phenyl]-3-cyclopentyl-N-[4-(2,2-dimethyl-1,3-dioxolan-4-yl)-1,3-thiazol-2-yl]acrylamide] | – | – | –
260 | CC(O)(CO)c1csc(NC(=O)[C@H](CC2CCCC2)c2ccc(S(=O)(=O)C3CC3)cc2)n1 (stereo partly drawn) [Ex 74, (2R)-3-cyclopentyl-2-[4-(cyclopropylsulfonyl)phenyl]-N-[4-(1,2-dihydroxy-1-methylethyl)-1,3-thiazol-2-yl]propanamide] | 23 | – | –
263 | CS(=O)(=O)c1ccc([C@@H](CC2CCCC2)C(=O)Nc2nc(C(O)CO)cs2)cc1 (stereo partly drawn) [Ex 5, (2R)-3-cyclopentyl-N-[4-(1,2-dihydroxyethyl)-1,3-thiazol-2-yl]-2-[4-(methylsulfonyl)phenyl]propanamide] | – | – | –
240 | O=C(Nc1nc(C(O)CCO)cs1)/C(=C/C1CCCC1)c1ccc(S(=O)(=O)C2CC2)cc1 (stereo not drawn) [Ex 71] | 22 | – | –
235 | CC(O)(CO)c1csc(NC(=O)/C(=C/C2CCCC2)c2ccc(S(=O)(=O)C3CCC3)cc2)n1 (stereo not drawn) [Ex 73, (2E)-2-[4-(cyclobutylsulfonyl)phenyl]-3-cyclopentyl-N-[4-(1,2-dihydroxy-1-methylethyl)-1,3-thiazol-2-yl]acrylamide] | 27 | – | –
244 | O=C(Nc1nc(CC(CO)CO)cs1)/C(=C/C1CCCC1)c1ccc(S(=O)(=O)C2CC2)cc1 [Ex 70, (2E)-3-cyclopentyl-2-[4-(cyclopropylsulfonyl)phenyl]-N-{4-[3-hydroxy-2-(hydroxymethyl)propyl]-1,3-thiazol-2-yl} acrylamide] | – | – | –
267 | O=C(Nc1nc(C(O)CO)cs1)[C@H](CC1CCCC1)c1ccc(S(=O)(=O)C2CC2)cc1 (stereo partly drawn) [Ex 66] | – | – | –
214 | O=C(Nc1nc(C(O)CO)cs1)C(CC1CCCC1)c1ccc(S(=O)(=O)C(F)(F)F)cc1 (stereo not drawn) [Ex 7, 3-cyclopentyl-N-[4-(1,2-dihydroxyethyl)-1,3-thiazol-2-yl]-2-{4-[(trifluoromethyl)sulfonyl]phenyl}propanamide] | – | – | –
217 | O=C(Nc1nc(C(=O)CO)cs1)/C(=C/C1CCCC1)c1ccc(S(=O)(=O)C2CC2)cc1 [Ex 77, (2E)-3-cyclopentyl-2-[4-(cyclopropylsulfonyl)phenyl]-N-(4-glycoloyl-1,3-thiazol-2-yl)acrylamide] | 18 | – | –
293 | O=C(Nc1nc([C@H](O)CO)cs1)/C(=C/C1CCCC1)c1ccc(S(=O)(=O)C2CC2)cc1 [Ex 13, (2E)-3-cyclopentyl-2-[4-(cyclopropylsulfonyl)phenyl]-N-{4-[(1S)-1,2-dihydroxyethyl]-1,3-thiazol-2-yl}acrylamide] | 19 | – | –
239 | CC1(C)OCC(c2csc(NC(=O)/C(=C/C3CCCC3)c3ccc(S(C)(=O)=O)cc3)n2)O1 (stereo not drawn) [Ex 38, (2E)-3-cyclopentyl-N-[4-(2,2-dimethyl-1,3-dioxolan-4-yl)-1,3-thiazol-2-yl]-2-[4-(methylsulfonyl)phenyl]acrylamide] | – | – | –
227 | O=C(Nc1nc(C(O)CO)cs1)/C(=C/C1CCCC1)c1ccc(S(=O)(=O)C2CCC2)cc1 (stereo not drawn) [Ex 62, (2E)-2-[4-(cyclobutylsulfonyl)phenyl]-3-cyclopentyl-N-[4-(1,2-dihydroxyethyl)-1,3-thiazol-2-yl]acrylamide] | 19 | – | –
